Test results published in patent US8278296B2, “Manipulation of brain CDP-diacylglycerol and uses thereof” (priority 2006, dated 2012).

Legend:
[1] = system: CDP-diacylglycerol; test: [3H]CDP-diacylglycerol accumulation in rat brain slices; type: cell-based; settings: monoamine receptor agonists; frontal cortex or hippocampal tissues; 5 mM LiCl; 90 min
[2] = system: phosphatidylinositides; test: [3H]inositol phospholipid (phosphatidylinositide) resynthesis in rat brain slices; type: cell-based; settings: […]; frontal cortex or hippocampal tissues; 5 mM LiCl; 90 min
[3] = system: inositol phosphates; test: [3H]inositol phosphate accumulation in rat brain slices; type: cell-based; settings: monoamine receptor agonists; frontal cortex or hippocampal tissues; 5 mM LiCl; 90 min
[4] = system: CDP-diacylglycerol/inositol phosphate; test: CDP-DG/IP ratio calculated from brain slice data; type: cell-based, rat; settings: monoamine receptor agonists; frontal cortex or hippocampal tissues
Description: FIGS. 9A-9C are ratios of antidepressant-induced CDP-diacylglycerol versus inositol phosphates. The data in FIGS. 1A-1C, 2A-2B, 3A-3C, 4A-4B, and 5A-5C were recalculated by dividing the CDP-diacylglycerol effects of each concentration of each antidepressant agent by the corresponding effects of the agent on inositol phosphate accumulation to yield the CDP-diacylglycerol/inositol phosphate (CDP-DG/IP) ratios shown. […] Data for each agent were analyzed by One-Way ANOVA followed by posthoc Dunnett tests. ^#p<0.05; *p<0.01; compared to the respective control (zero drug concentration).
As used herein, the term “CDP-DG/IP ratio” refers to the relative value of an index which is the quotient of a level of cellular CDP-diacylglycerol divided by a level of inositol phosphate in a tissue or cell or tissue cultures thereof, e.g., a mammalian brain tissue or blood platelets, a human brain tissue or blood platelets, or other cells or tissues having the ability to metabolize CDP-diacylglycerol and phosphoinositides. Levels may be determined, but are not limited to, using molar concentration or a radiolabel.
To determine if antidepressant agents exert differential effects on CDP-DG production compared to PI hydrolysis, the ratios of CDP-DG production relative to the IPs (CDP-DG/IP ratio) in corresponding treatment conditions were examined.
Corresponding CDP-DG ratios were calculated as for the antidepressant agents. […] The ratios of CDP-DG production relative to IP accumulation are shown on the far right of the graphs in FIGS. 10A-10C and FIGS. 11A-11D.

[5] = system: 5HT2 receptor; test: α-methylserotonin-stimulated IP accumulation in tissues prelabeled with [3H]inositol in presence of antidepressants; type: cell-based, rat; settings: hippocampus, frontal cortex, striatum; 60 min; 5 mM LiCl

Compound: CC(N)Cc1c[nH]c2ccc(O)cc12 (stereo not drawn) [α-methylserotonin]
- effect on CDP-DG production [1]: significantly increased
- effect on PI synthesis [2]: significant but relatively small effects
- effect on IP accumulation [3]: significantly increased
- CDP-DG/IP ratio [4]: no concentration-related increase
- IP accumulation induced by agonist by itself [5]: significant increases
